The values that follow come from patent publication US11629154B2, “Tetrahydropyranooxazine derivatives having selective BACE1 inhibitory activity” (SHIONOGI & CO., LTD., priority 2018, dated 2023).

Data set [1] concerns the target P-gp (MDR1 expressing LLC-PK1 cells) (Homo sapiens (Human), UniProt P08183). The data set can be described thus: P-gp substrate test. It is filed as in vitro ADME. The following applies: MDR1/LLC-PK1 versus LLC-PK1. The method, then:
1. MDR1 expressing LLC-PK1 cells and its parent cells were routinely cultured in Medium A (Medium 199 (Invitrogen) supplemented with 10% FBS (Invitrogen), gentamycin (0.05 mg/mL, Invitrogen) and hygromycin B (100 μg/mL, Invitrogen)) at 37° C. under 5% CO2/[…] gasses. For the transport experiments, these cells were seeded on Transwell (Registered trademark) insert (96-well, pore size: 0.4 μm, Coaster) at a density of 1.4×10^4 cells/insert and added Medium B (Medium 199 supplemented with 10% FBS and gentamycin at 0.05 mg/mL) to the feeder tray. These cells were incubated in a CO2 incubator (5% CO2/[…] gasses, 37° C.) and replace apical and basolateral culture medium every 48-72 hr after seeding. These cells were used between 4 and 6 days after seeding. 2. The medium in the culture insert seeded with MDR1 expressing cells or parent cells were removed by aspiration and rinsed by HBSS. The apical side (140 μL) or basolateral side (175 μL) was replaced with transport buffer containing reference substrates and the present invention and then an aliquot (50 μL) of transport buffer in the donor side was collected to estimate initial concentration of reference substrate and the present invention. After incubation for designed time at 37° C., an aliquot (50 μL) of transport buffer in the donor and receiver side were collected. Assay was performed by duplicate or triplicate. 3. Reference substrate and the present invention in the aliquot was quantified by LC/MS/MS.
Permeated amounts across monolayers of MDR1 expressing and parent cells were determined, and permeation coefficients (Pe) were calculated using Excel 2003 from the following equitation: Pe (cm/sec)=Permeated amount (pmol)/area of cell membrane (cm^2)/initial concentration (nM)/incubation time (sec) Where, permeated amount was calculated from permeation concentration (nM, concentration of the receiver side) of the substance after incubation for the defined time (sec) multiplied by volume (mL) and area of cell membrane was used 0.1433 (cm2).
The efflux ratio was calculated using the following equation: Efflux Ratio=Basolateral-to-Apical Pe/Apical-to-Basolateral Pe The net flux was calculated using the following equation: Net flux=Efflux Ratio in MDR1 expressing cells/Efflux Ratio in parent cells

A further data set is described as follows: Metabolic stability test. The format is in vitro ADME. The conditions noted are these: human liver microsomes, 37° C., NADPH. The method, then:
Using a commercially available pooled human liver microsomes, a compound of the present invention was reacted for a constant time, a remaining rate was calculated by comparing a reacted sample and an unreacted sample, thereby, a degree of metabolism in liver was assessed.
A reaction was performed (oxidative reaction) at 37° C. for 0 minute or 30 minutes in the presence of 1 mmol/L NADPH in 0.2 mL of a buffer (50 mmol/L Tris-HCl pH 7.4, 150 mmol/L potassium chloride, 10 mmol/L magnesium chloride) containing 0.5 mg protein/mL of human liver microsomes. After the reaction, 50 μL of the reaction solution was added to 100 μL of a methanol/acetonitrile=1/1 (v/v), mixed and centrifuged at 3000 rpm for 15 minutes. The compound of the present invention in the supernatant was quantified by LC/MS/MS or solid phase extraction (SPE)MS, and a remaining amount of the compound of the present invention after the reaction was calculated, letting a compound amount at 0 minute reaction time to be 100%.

Data set [2] has as its target recombinant BACE2 protein (Homo sapiens (Human), UniProt Q9Y5Z0). Kind of data set: BACE2 biochemical FRET based assay. The conditions noted are these: pH 5.0. The source says: (2) BACE2 Biochemical FRET Based Assay
(§1) This assay is a Fluorescence Resonance Energy Transfer Assay (FRET) based assay. The substrate for this assay contains the ‘Swedish’ Lys-Met/Asn-Leu mutation of the amyloid precursor protein (APP) beta-secretase cleavage site. This substrate also contains two fluorophores: (7-methoxycoumarin-4-yl) acetic acid (Mca) is a fluorescent donor with excitation wavelength at 320 nm and emission at 405 nm and 2,4-dinitrophenol (Dnp) is a proprietary quencher acceptor. […] Upon cleavage by the beta-secretase, the fluorophore Mca is separated from the quenching group Dnp, restoring the full fluorescence yield of the donor. The increase in fluorescence is linearly related to the rate of proteolysis.
Briefly in a 384-well format recombinant BACE2 protein in a final concentration of 0.4 μg/mL was incubated for 450 minutes at room temperature with 10 μM substrate in incubation buffer (final concentrations: 33.3 mM Citrate buffer pH 5.0, 0.033% PEG, 2% DMSO) in the absence or presence of compound. Next the amount of proteolysis was directly measured by fluorescence measurement at T=0 and T=450 (excitation at 320 nm and emission at 405 nm). Results were expressed in RFU (Relative Fluorescence Units), as difference between T450 and TO.
(§2) A best-fit curve was fitted by a minimum sum of squares method to the plot of % Controlmin versus compound concentration. From this an IC50 value (inhibitory concentration causing 50% inhibition of activity) can be obtained.
(§3) LC=Median of the low control values
(§4) =Low control: Reaction without enzyme
(§5) HC=Median of the High control values

For data set [3], the target named is recombinant BACE1 protein (Homo sapiens (Human), UniProt P56817). The data set can be described thus: BACE1 biochemical FRET based assay. The conditions noted are these: for Selectivity: BACE1 versus BACE2; for IC50: FRET, pH 5.0.
Chain of recombinant BACE1 protein (P56817 46-501): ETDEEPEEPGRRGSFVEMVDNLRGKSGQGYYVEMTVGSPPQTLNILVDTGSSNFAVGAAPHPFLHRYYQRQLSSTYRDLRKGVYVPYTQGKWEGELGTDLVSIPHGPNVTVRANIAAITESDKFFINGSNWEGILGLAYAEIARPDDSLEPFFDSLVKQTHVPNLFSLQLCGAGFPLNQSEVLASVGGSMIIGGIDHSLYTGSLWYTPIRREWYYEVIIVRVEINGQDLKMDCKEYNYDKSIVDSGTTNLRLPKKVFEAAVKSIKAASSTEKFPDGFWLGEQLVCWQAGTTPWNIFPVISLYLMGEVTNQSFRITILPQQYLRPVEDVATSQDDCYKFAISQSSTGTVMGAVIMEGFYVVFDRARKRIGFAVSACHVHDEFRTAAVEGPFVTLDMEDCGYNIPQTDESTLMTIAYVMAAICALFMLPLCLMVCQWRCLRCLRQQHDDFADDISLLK
Text: (1) BACE1 Biochemical FRET Based Assay
as §1, with “this assay is an APP derived 13 amino acids peptide that contains the” for “this assay contains the”, “protein (APP) beta-site secretase cleavage site.” for “protein (APP) beta-secretase cleavage site.”, “cleavage by BACE1, the fluorophore” for “cleavage by the beta-secretase, the fluorophore”
Briefly in a 384-well format recombinant BACE1 protein in a final concentration of 0.04 μg/mL was incubated for 450 minutes at room temperature with […] substrate in incubation buffer (final concentrations: 33.3 mM Citrate buffer pH 5.0, 0.033% PEG, 3% DMSO) in the absence or presence of compound. Next the amount of proteolysis was directly measured by fluorescence measurement at T=0′-120′ and T=450′ (excitation at 320 nm and emission at 405 nm). Results were expressed in RFU (Relative Fluorescence Units), as difference between T450 and Tx (Tx is chosen depending on the reaction speed between 0 and 120 minutes).
as §2, §3, §4, §5
=High Control: Reaction with enzyme % Effect=100−[(sample−LC)/(HC−LC)*100] % Control=(sample/HC)*100 % Controlmin=(sample−LC)/(HC−LC)*100

Chain of P-gp (MDR1 expressing LLC-PK1 cells) (P08183 whole entry): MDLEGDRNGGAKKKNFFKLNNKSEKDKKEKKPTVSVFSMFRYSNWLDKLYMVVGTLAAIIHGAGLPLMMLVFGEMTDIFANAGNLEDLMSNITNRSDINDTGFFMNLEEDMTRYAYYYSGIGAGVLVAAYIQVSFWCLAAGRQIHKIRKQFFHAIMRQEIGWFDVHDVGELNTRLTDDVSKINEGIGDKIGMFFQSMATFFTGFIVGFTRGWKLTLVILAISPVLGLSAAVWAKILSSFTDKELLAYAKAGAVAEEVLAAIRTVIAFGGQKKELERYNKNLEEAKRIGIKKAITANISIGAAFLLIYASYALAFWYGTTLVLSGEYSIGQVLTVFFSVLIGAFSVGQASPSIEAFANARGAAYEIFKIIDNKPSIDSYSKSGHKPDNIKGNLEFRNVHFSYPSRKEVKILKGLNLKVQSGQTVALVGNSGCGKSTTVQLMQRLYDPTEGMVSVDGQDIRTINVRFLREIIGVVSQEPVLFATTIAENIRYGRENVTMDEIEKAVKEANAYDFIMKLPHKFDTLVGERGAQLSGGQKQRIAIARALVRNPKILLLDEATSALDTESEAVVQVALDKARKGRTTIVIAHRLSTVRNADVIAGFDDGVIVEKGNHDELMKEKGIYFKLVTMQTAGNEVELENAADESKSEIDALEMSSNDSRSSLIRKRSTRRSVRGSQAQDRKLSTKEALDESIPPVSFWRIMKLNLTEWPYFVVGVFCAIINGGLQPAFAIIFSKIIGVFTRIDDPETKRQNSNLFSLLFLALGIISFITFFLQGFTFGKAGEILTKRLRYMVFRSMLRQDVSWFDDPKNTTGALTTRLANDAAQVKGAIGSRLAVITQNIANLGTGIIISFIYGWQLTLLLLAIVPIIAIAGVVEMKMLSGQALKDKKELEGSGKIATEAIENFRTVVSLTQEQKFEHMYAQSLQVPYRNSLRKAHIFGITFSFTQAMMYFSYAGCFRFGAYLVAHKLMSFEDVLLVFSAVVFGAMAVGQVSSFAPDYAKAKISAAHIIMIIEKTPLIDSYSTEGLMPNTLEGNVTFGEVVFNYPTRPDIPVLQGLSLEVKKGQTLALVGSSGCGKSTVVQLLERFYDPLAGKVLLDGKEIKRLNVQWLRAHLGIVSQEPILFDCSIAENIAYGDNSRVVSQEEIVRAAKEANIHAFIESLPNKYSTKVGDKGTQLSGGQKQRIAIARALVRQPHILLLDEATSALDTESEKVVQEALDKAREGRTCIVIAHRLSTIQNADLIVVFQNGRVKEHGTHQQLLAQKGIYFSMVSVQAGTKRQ
Chain of recombinant BACE2 protein (Q9Y5Z0 63-518): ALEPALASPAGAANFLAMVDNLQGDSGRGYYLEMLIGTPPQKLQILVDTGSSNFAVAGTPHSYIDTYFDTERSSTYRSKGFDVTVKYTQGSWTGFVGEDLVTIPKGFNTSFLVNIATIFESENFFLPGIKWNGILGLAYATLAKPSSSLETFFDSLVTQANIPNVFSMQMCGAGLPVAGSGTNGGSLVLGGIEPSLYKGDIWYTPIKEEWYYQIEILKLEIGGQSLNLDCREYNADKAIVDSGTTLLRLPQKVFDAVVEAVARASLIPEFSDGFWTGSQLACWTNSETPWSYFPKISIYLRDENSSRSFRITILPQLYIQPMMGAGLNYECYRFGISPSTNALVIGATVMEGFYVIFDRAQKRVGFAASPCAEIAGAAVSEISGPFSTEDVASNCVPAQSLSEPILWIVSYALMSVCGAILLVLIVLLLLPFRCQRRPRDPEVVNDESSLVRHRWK

A word on the IC50: it is the point on the concentration scale where inhibition reaches its midpoint. Consider `NC1=N[C@](CF)(c2cc(NC(=O)c3cnc(OCF)cn3)ccc2F)[C@H]2COCC[C@H]2O1` [Compound I-007], for which, in data set [1], the “P-gp ER ratio” value was 5.5. Moreover, in “Metabolic stability test”, the “Remaining rate(%) at 30 min” value turned out to be 107%. For the same compound, the IC50 in data set [2] was found to be 302 nM. Also, in data set [3], the Selectivity turned out to be 40.7 and the IC50 was determined as 7.4 nM.

As for `C[C@@H]1C[C@H]2OC(N)=N[C@](CF)(c3cc(NC(=O)c4cnc(OCF)cn4)ccc3F)[C@H]2CO1` [Compound I-008], the “P-gp ER ratio” value in data set [1] is reported as 6.2. Moreover, the “Remaining rate(%) at 30 min” value in the data set “Metabolic stability test” was found to be 94.4%. Moreover, the IC50 in data set [2] amounted to 646 nM. For the same compound, in data set [3], the Selectivity stood at 43.7 and the IC50 was 14.8 nM.

In the case of `NC1=N[C@](CF)(c2cc(NC(=O)c3cnc(-n4cncn4)cn3)ccc2F)[C@H]2COCC[C@H]2O1` [Compound I-047], the “P-gp ER ratio” value in data set [1] was determined as 4.7. Moreover, in “Metabolic stability test”, the “Remaining rate(%) at 30 min” value stood at 61.6%. For the same compound, the IC50 in data set [2] was determined as 1180 nM; in data set [3], 17 nM. Besides, the Selectivity in data set [3] is 69.2.

`C[C@@H]1C[C@H]2OC(N)=N[C@](CF)(c3cc(NC(=O)c4cnc(OCF)cn4)ccc3Cl)[C@H]2CO1` [Compound I-065]: the “P-gp ER ratio” value in data set [1] was 5.7. The “Remaining rate(%) at 30 min” value in the data set “Metabolic stability test” was found to be 79.6%. Besides, the values for the IC50 in data set [2] and in data set [3] were 339 nM and 9.5 nM, respectively. Besides, in data set [3], the Selectivity was 35.5.

As to `COc1cnc(C(=O)Nc2ccc(F)c([C@@]3(CF)N=C(N)O[C@@H]4CCOC[C@@H]43)c2)cn1` [Compound I-067], the “P-gp ER ratio” value in data set [1] was 6.1. Besides, the “Remaining rate(%) at 30 min” value in the data set “Metabolic stability test” is 91.4%. Further, the IC50 in data set [2] was found to be 269 nM; in data set [3], 8.9 nM. Moreover, in data set [3], the Selectivity came to 30.2.

On to `NC1=N[C@](CF)(c2cc(NC(=O)c3cnc(OC(F)F)cn3)ccc2F)[C@H]2COCC[C@H]2O1` [Compound I-076], for which, in data set [1], the “P-gp ER ratio” value came out at 6.2. In addition, the “Remaining rate(%) at 30 min” value in “Metabolic stability test” is on record as 91.7%. Also, the IC50 in data set [2] stood at 178 nM; in data set [3] it was 2.8 nM. Also, the Selectivity in data set [3] turned out to be 63.1.

In the case of `NC1=N[C@](CF)(c2cc(NC(=O)c3ccc(C(F)(F)F)cn3)ccc2F)[C@H]2COCC[C@H]2O1` [Compound I-105], the “P-gp ER ratio” value in data set [1] worked out at 7.1. In addition, in the data set “Metabolic stability test”, the “Remaining rate(%) at 30 min” value was 87.9%. In addition, the IC50 in data set [2] came out at 302 nM. Moreover, in data set [3], the Selectivity is given as 17.8 and the IC50 is 17 nM.
